We go through 13 compounds from patent US11713338B2, “Cyclic peptides multimers targeting α-4-β-7 integrin” (priority 2016, dated 2023).

Molecules are shown by their SMILES.

This experiment addresses T1, integrin α4β7 (RPMI8866 human cells adhering to MAdCAM-1) (Homo sapiens, UniProt P13612+P26010).
T1 construct: RMP18866 cells, which express integrin α4β7; host or cells: RPMI8866
T1 sequence (P13612 34-1032): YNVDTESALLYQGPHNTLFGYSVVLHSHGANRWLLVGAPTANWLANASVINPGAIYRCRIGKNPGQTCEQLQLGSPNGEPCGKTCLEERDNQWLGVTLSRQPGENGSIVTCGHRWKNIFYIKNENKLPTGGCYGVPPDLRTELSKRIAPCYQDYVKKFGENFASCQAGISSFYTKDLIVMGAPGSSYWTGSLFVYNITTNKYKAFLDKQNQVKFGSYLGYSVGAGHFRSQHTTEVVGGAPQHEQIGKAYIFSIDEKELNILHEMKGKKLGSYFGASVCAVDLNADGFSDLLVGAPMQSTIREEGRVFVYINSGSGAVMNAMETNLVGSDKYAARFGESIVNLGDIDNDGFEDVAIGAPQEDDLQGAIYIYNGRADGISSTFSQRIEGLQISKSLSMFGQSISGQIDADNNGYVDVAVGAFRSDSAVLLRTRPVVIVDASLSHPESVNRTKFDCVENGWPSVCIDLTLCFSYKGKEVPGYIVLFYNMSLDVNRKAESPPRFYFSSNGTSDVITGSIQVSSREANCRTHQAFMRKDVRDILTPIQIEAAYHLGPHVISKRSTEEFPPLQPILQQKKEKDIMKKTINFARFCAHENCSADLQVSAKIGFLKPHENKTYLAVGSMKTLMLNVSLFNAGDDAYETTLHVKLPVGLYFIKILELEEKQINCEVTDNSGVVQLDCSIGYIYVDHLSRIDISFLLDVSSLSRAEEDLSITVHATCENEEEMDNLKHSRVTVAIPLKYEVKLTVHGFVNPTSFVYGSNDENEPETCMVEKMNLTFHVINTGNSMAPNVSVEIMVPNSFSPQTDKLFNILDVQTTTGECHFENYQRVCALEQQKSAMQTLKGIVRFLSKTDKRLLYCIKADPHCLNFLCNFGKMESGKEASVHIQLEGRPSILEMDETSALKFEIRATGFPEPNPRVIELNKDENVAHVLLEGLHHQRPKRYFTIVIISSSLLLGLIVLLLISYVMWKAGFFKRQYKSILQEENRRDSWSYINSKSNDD
T1 sequence (P26010 20-798): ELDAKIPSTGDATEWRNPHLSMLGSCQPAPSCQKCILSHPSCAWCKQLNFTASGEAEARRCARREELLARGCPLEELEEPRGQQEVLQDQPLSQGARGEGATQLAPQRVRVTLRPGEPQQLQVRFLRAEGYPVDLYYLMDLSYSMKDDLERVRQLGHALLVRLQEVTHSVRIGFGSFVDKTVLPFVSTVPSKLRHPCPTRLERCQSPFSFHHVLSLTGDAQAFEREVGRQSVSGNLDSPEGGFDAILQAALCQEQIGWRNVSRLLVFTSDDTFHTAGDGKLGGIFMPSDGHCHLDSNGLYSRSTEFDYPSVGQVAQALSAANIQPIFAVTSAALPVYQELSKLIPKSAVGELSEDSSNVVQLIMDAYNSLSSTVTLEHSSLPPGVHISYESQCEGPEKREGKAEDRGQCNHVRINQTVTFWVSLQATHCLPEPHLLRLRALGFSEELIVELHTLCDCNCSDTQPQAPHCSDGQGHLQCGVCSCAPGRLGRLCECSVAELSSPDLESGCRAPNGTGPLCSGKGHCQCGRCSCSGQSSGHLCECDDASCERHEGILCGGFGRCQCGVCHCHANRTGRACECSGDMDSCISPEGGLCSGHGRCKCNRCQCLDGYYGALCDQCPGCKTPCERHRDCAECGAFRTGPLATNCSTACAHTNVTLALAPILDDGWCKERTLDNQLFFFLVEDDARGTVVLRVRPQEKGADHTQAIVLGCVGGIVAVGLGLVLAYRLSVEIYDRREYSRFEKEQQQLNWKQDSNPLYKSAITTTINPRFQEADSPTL
Description: Integrin α4β7-MAdCAM cell adhesion assay (RPMI8866 cells). Format: cell-based. As to conditions: RPMI8866 cells adhering to MAdCAM; read-out: RPMI8866 Adhesion α4β7/MAdCAM IC50. Here is the method:
Integrin α4β7-MAdCAM Cell Adhesion Assay
RPMI8866 cells were resuspended at 10 million cells/ml in PBS containing […] and incubated at 37° C. for 30 min in a 50 ml tube. […] The plate was emptied by inverting and blotting on paper towels and washed manually twice with PBS. 100 μl PBS was then added to each well. […] To calculate the dose response, the fluorescence value of control wells not containing cells was subtracted from each test well.
Regarding `CC(C)C[C@@H]1NC(=O)C[C@H](CCCCN)N(C)C(=O)[C@H](CCCCNC(=O)CCC(=O)NCCCC[C@@H]2NC(=O)[C@@H]3CCCN3[C@H](C(=O)NC(C)(C)C)[C@H](C)NC(=O)[C@H]([C@@H](C)O)NC(=O)[C@H](CC(=O)O)NC(=O)[C@H](CC(C)C)NC(=O)C[C@H](CCCCN)N(C)C2=O)NC(=O)[C@@H]2CCCN2[C@H](C(=O)NC(C)(C)C)[C@H](C)NC(=O)[C@H]([C@@H](C)O)NC(=O)[C@H](CC(=O)O)NC1=O` [Compound 531], the IC50 worked out at 23 nM.

On to `CC(C)C[C@@H]1NC(=O)c2ccc(-c3ccc(N4CCN(C(=O)CCOCCOCCOCCOCCOCCOCCOCCC(=O)N5CCN(c6ccc(-c7ccc8cc7CNC(=O)[C@@H]7CCCN7[C@H](C(=O)NC(C)(C)C)[C@H](C)NC(=O)[C@H]([C@@H](C)O)NC(=O)[C@H](CC(=O)O)NC(=O)[C@H](CC(C)C)NC8=O)cc6)CC5)CC4)cc3)c(c2)CNC(=O)[C@@H]2CCCN2[C@H](C(=O)NC(C)(C)C)[C@H](C)NC(=O)[C@H]([C@@H](C)O)NC(=O)[C@H](CC(=O)O)NC1=O` [Compound 510], for which the IC50 amounted to 87 nM.

As for `CC(C)C[C@@H]1NC(=O)c2ccc(-c3ccc(N4CCN(C(=O)CCOCCOCCOCCOCCOCCC(=O)N5CCN(c6ccc(-c7ccc8cc7CNC(=O)[C@@H]7CCCN7[C@H](C(=O)NC(C)(C)C)[C@H](C)NC(=O)[C@H]([C@@H](C)O)NC(=O)[C@H](CC(=O)O)NC(=O)[C@H](CC(C)C)NC8=O)cc6)CC5)CC4)cc3)c(c2)CNC(=O)[C@@H]2CCCN2[C@H](C(=O)NC(C)(C)C)[C@H](C)NC(=O)[C@H]([C@@H](C)O)NC(=O)[C@H](CC(=O)O)NC1=O` [Compound 509], the IC50 stood at 31 nM.

For the compound `CC(C)C[C@@H]1NC(=O)[C@H]2CCCCN2C(=O)[C@H](Cc2ccc(CNC(=O)CCCCCC(=O)NCc3ccc(C[C@@H]4NC(=O)[C@@H]5CCCN5[C@H](C(=O)NC(C)(C)C)[C@H](C)NC(=O)[C@H]([C@@H](C)O)NC(=O)[C@H](CC(=O)O)NC(=O)[C@H](CC(C)C)NC(=O)[C@H]5CCCCN5C4=O)cc3)cc2)NC(=O)[C@@H]2CCCN2[C@H](C(=O)NC(C)(C)C)[C@H](C)NC(=O)[C@H]([C@@H](C)O)NC(=O)[C@H](CC(=O)O)NC1=O` [Compound 524], the IC50 came to 447 nM.

On to `CC(C)C[C@@H]1NC(=O)c2ccc(-c3ccc(N4CCN(C(=O)CCCCCCCC(=O)N5CCN(c6ccc(-c7ccc8cc7CNC(=O)[C@@H]7CCCN7[C@H](C(=O)NC(C)(C)C)[C@H](C)NC(=O)[C@H]([C@@H](C)O)NC(=O)[C@H](CC(=O)O)NC(=O)[C@H](CC(C)C)NC8=O)cc6)CC5)CC4)cc3)c(c2)CNC(=O)[C@@H]2CCCN2[C@H](C(=O)NC(C)(C)C)[C@H](C)NC(=O)[C@H]([C@@H](C)O)NC(=O)[C@H](CC(=O)O)NC1=O` [Compound 488], for which the IC50 stood at 34 nM.

Consider `CC(C)C[C@@H]1NC(=O)c2ccc(-c3ccc(N4CCN(C(=O)CCSCCC(=O)N5CCN(c6ccc(-c7ccc8cc7CNC(=O)[C@@H]7CCCN7[C@H](C(=O)NC(C)(C)C)[C@H](C)NC(=O)[C@H]([C@@H](C)O)NC(=O)[C@H](CC(=O)O)NC(=O)[C@H](CC(C)C)NC8=O)cc6)CC5)CC4)cc3)c(c2)CNC(=O)[C@@H]2CCCN2[C@H](C(=O)NC(C)(C)C)[C@H](C)NC(=O)[C@H]([C@@H](C)O)NC(=O)[C@H](CC(=O)O)NC1=O` [Compound 473], for which the IC50 amounted to 63 nM.

With `CC(C)C[C@@H]1NC(=O)c2ccc(-c3ccc(N4CCN(C(=O)CCCC(=O)N5CCN(c6ccc(-c7ccc8cc7CNC(=O)[C@@H]7CCCN7[C@H](C(=O)NC(C)(C)C)[C@H](C)NC(=O)[C@H]([C@@H](C)O)NC(=O)[C@H](CC(=O)O)NC(=O)[C@H](CC(C)C)NC8=O)cc6)CC5)CC4)cc3)c(c2)CNC(=O)[C@@H]2CCCN2[C@H](C(=O)NC(C)(C)C)[C@H](C)NC(=O)[C@H]([C@@H](C)O)NC(=O)[C@H](CC(=O)O)NC1=O` [Compound 485], the IC50 was 30 nM.

As to `CC(C)C[C@@H]1NC(=O)c2ccc(-c3ccc(N4CCN(C(=O)CC(=O)N5CCN(c6ccc(-c7ccc8cc7CNC(=O)[C@@H]7CCCN7[C@H](C(=O)NC(C)(C)C)[C@H](C)NC(=O)[C@H]([C@@H](C)O)NC(=O)[C@H](CC(=O)O)NC(=O)[C@H](CC(C)C)NC8=O)cc6)CC5)CC4)cc3)c(c2)CNC(=O)[C@@H]2CCCN2[C@H](C(=O)NC(C)(C)C)[C@H](C)NC(=O)[C@H]([C@@H](C)O)NC(=O)[C@H](CC(=O)O)NC1=O` [Compound 483], the IC50 came to 29 nM.

As for `CC(C)C[C@@H]1NC(=O)[C@H]2Cc3ccccc3CN2C(=O)[C@H](Cc2cccc(CNC(=O)CCCCCCC(=O)NCc3cccc(C[C@@H]4NC(=O)[C@@H]5CCCN5[C@H](C(=O)NC(C)(C)C)[C@H](C)NC(=O)[C@H]([C@@H](C)O)NC(=O)[C@H](CC(=O)O)NC(=O)[C@H](CC(C)C)NC(=O)[C@H]5Cc6ccccc6CN5C4=O)c3)c2)NC(=O)[C@@H]2CCCN2[C@H](C(=O)NC(C)(C)C)[C@H](C)NC(=O)[C@H]([C@@H](C)O)NC(=O)[C@H](CC(=O)O)NC1=O` [Compound 528], the IC50 turned out to be 47 nM.

For the compound `CC(C)C[C@@H]1NC(=O)c2ccc(-c3ccc(N4CCN(C(=O)c5ncn(C)c5C(=O)N5CCN(c6ccc(-c7ccc8cc7CNC(=O)[C@@H]7CCCN7[C@H](C(=O)NC(C)(C)C)[C@H](C)NC(=O)[C@H]([C@@H](C)O)NC(=O)[C@H](CC(=O)O)NC(=O)[C@H](CC(C)C)NC8=O)cc6)CC5)CC4)cc3)c(c2)CNC(=O)[C@@H]2CCCN2[C@H](C(=O)NC(C)(C)C)[C@H](C)NC(=O)[C@H]([C@@H](C)O)NC(=O)[C@H](CC(=O)O)NC1=O` [Compound 476], the IC50 worked out at 32 nM.

For `CC(C)C[C@@H]1NC(=O)[C@H]2Cc3ccccc3CN2C(=O)[C@H](Cc2cccc(CNC(=O)CCCCCCCC(=O)NCc3cccc(C[C@@H]4NC(=O)[C@@H]5CCCN5[C@H](C(=O)NC(C)(C)C)[C@H](C)NC(=O)[C@H]([C@@H](C)O)NC(=O)[C@H](CC(=O)O)NC(=O)[C@H](CC(C)C)NC(=O)[C@H]5Cc6ccccc6CN5C4=O)c3)c2)NC(=O)[C@@H]2CCCN2[C@H](C(=O)NC(C)(C)C)[C@H](C)NC(=O)[C@H]([C@@H](C)O)NC(=O)[C@H](CC(=O)O)NC1=O` [Compound 529], the IC50 was determined as 47 nM.

On to `CC(C)C[C@@H]1NC(=O)c2ccc(-c3ccc(N4CCN(C(=O)CC[C@@H](N)C(=O)N5CCN(c6ccc(-c7ccc8cc7CNC(=O)[C@@H]7CCCN7[C@H](C(=O)NC(C)(C)C)[C@H](C)NC(=O)[C@H]([C@@H](C)O)NC(=O)[C@H](CC(=O)O)NC(=O)[C@H](CC(C)C)NC8=O)cc6)CC5)CC4)cc3)c(c2)CNC(=O)[C@@H]2CCCN2[C@H](C(=O)NC(C)(C)C)[C@H](C)NC(=O)[C@H]([C@@H](C)O)NC(=O)[C@H](CC(=O)O)NC1=O` [Compound 495], for which the IC50 stood at 30 nM.

For the compound `CC(C)C[C@@H]1NC(=O)c2ccc(-c3ccc(N4CCN(C(=O)C5(C(=O)N6CCN(c7ccc(-c8ccc9cc8CNC(=O)[C@@H]8CCCN8[C@H](C(=O)NC(C)(C)C)[C@H](C)NC(=O)[C@H]([C@@H](C)O)NC(=O)[C@H](CC(=O)O)NC(=O)[C@H](CC(C)C)NC9=O)cc7)CC6)CC5)CC4)cc3)c(c2)CNC(=O)[C@@H]2CCCN2[C@H](C(=O)NC(C)(C)C)[C@H](C)NC(=O)[C@H]([C@@H](C)O)NC(=O)[C@H](CC(=O)O)NC1=O` [Compound 459], the IC50 turned out to be 33 nM.
